Source: ChEMBL document CHEMBL4190370, “Emerging New Targets for the Treatment of Resistant Fungal Infections” (J Med Chem, 2018)
≈ marks a conversion by molar mass, not a printed value.

What was measured:
Candida albicans [1] = assay: Antifungal activity against fluconazole-resistant Candida albicans clinical isolate 3731 planktonic cells after 48 hrs by broth microdilution assay; assay type: functional; conditions: isolate 3731, 48 h
Candida albicans [2] = assay: Antibiofilm activity against Candida albicans SC5314 assessed as inhibition of biofilm formation at 2 to 4 ug/ml after 24 hrs by XTT reduction assay; assay type: functional
Candida albicans [3] = assay: Antifungal activity against fluconazole-resistant Candida albicans clinical isolate 4380 planktonic cells after 48 hrs by broth microdilution assay; assay type: functional; conditions: isolate 4380, 48 h
Candida albicans [4] = assay: Antifungal activity against fluconazole-resistant Candida albicans SC5314 planktonic cells after 48 hrs by broth microdilution assay; assay type: functional; conditions: SC5314, 48 h
Candida albicans [5] = assay: Antifungal activity against fluconazole-resistant Candida albicans clinical isolate 4617 planktonic cells after 48 hrs by broth microdilution assay; assay type: functional; conditions: isolate 4617, 48 h
Candida albicans [6] = assay: Antifungal activity against fluconazole-resistant Candida albicans clinical isolate 1691 planktonic cells after 48 hrs by broth microdilution assay; assay type: functional; conditions: isolate 1691, 48 h
Candida albicans [7] = assay: Antifungal activity against fluconazole-resistant Candida albicans clinical isolate 2440 planktonic cells after 48 hrs by broth microdilution assay; assay type: functional; conditions: isolate 2440, 48 h
Candida albicans [8] = assay: Antifungal activity against fluconazole-resistant Candida albicans clinical isolate 4639 planktonic cells after 48 hrs by broth microdilution assay; assay type: functional; conditions: isolate 4639, 48 h
Candida albicans [9] = assay: Antifungal activity against fluconazole-resistant Candida albicans clinical isolate 3034 planktonic cells after 48 hrs by broth microdilution assay; assay type: functional; conditions: isolate 3034, 48 h
Candida albicans [10] = assay: Antifungal activity against fluconazole-resistant Candida albicans clinical isolate 412 planktonic cells after 48 hrs by broth microdilution assay; assay type: functional; conditions: isolate 412, 48 h
Candida albicans [11] = assay: Antifungal activity against fluconazole-resistant Candida albicans clinical isolate 5106 planktonic cells after 48 hrs by broth microdilution assay; assay type: functional; conditions: isolate 5106, 48 h
Candida albicans [12] = assay: Antifungal activity against fluconazole-resistant Candida albicans clinical isolate 6482 planktonic cells after 48 hrs by broth microdilution assay; assay type: functional; conditions: isolate 6482, 48 h
Candida albicans [13] = assay: Antifungal activity against fluconazole-resistant Candida albicans clinical isolate 2307 planktonic cells after 48 hrs by broth microdilution assay; assay type: functional; conditions: isolate 2307, 48 h
Candida albicans [14] = assay: Antifungal activity against fluconazole-resistant Candida albicans clinical isolate 6191 planktonic cells after 48 hrs by broth microdilution assay; assay type: functional; conditions: isolate 6191, 48 h
Candida albicans [15] = assay: Antibiofilm activity against Candida albicans SC5314 assessed as inhibition of mature biofilm formation at 8 to 32 ug/ml after 24 hrs by XTT reduction assay; assay type: functional
Candida albicans [16] = assay: Antifungal activity against Candida albicans; assay type: functional
Cryptococcus neoformans = assay: Antifungal activity against Cryptococcus neoformans after 24 hrs; assay type: functional
Aspergillus fumigatus = assay: Antifungal activity against Aspergillus fumigatus after 24 hrs; assay type: functional
Saccharomyces cerevisiae = assay: Inhibition of Saccharomyces cerevisiae AHAS
Candida albicans [17] = assay: Antifungal activity against Candida albicans after 24 hrs; assay type: functional
Candida albicans [18] = assay: Inhibition of Cch1 in Candida albicans isolate 10 assessed as potentiation of fluconazole-induced antifungal activity by measuring fractional inhibitory concentration index after 24 hrs by checkerboard assay
Candida albicans [19] = assay: Inhibition of Cch1 in Candida albicans isolate 16 assessed as potentiation of fluconazole-induced antifungal activity by measuring fractional inhibitory concentration index after 24 hrs by checkerboard assay
Candida tropicalis = assay: Antifungal activity against Candida tropicalis KKP 334 by CLSI protocol based method; assay type: functional

`CCCCCCCCCCCCCCCCOP(=O)([O-])OCC[N+](C)(C)C` [MILTEFOSINE] was tested, and the MIC (Candida albicans [1]) was 0.5 to 2 µg/mL (≈ 1.23 to 4.91 µM), the “inhibition (INH)” value (Candida albicans [2]) was 90% and the MIC (Candida albicans [3]) was 0.5 to 2 µg/mL (≈ 1.23 to 4.91 µM). The MIC (Candida albicans [4]) was 0.5 to 2 µg/mL (≈ 1.23 to 4.91 µM), the MIC (Candida albicans [5]) was 0.5 to 2 µg/mL (≈ 1.23 to 4.91 µM) and the MIC (Candida albicans [6]) was 0.5 to 2 µg/mL (≈ 1.23 to 4.91 µM). It also gave an MIC (Candida albicans [7]) of 0.5 to 2 µg/mL (≈ 1.23 to 4.91 µM), an MIC (Candida albicans [8]) of 0.5 to 2 µg/mL (≈ 1.23 to 4.91 µM) and an MIC (Candida albicans [9]) of 0.5 to 2 µg/mL (≈ 1.23 to 4.91 µM). The MIC (Candida albicans [10]) was 0.5 to 2 µg/mL (≈ 1.23 to 4.91 µM), the MIC (Candida albicans [11]) was 0.5 to 2 µg/mL (≈ 1.23 to 4.91 µM) and the MIC (Candida albicans [12]) was 0.5 to 2 µg/mL (≈ 1.23 to 4.91 µM). For the same compound, the MIC (Candida albicans [13]) was 0.5 to 2 µg/mL (≈ 1.23 to 4.91 µM), the MIC (Candida albicans [14]) was 0.5 to 2 µg/mL (≈ 1.23 to 4.91 µM) and the “inhibition (INH)” value (Candida albicans [15]) was >90%.

`CC[C@@H](C)[C@@H](O)[C@H](C)C(=O)[C@H](C)/C=C(\C)C[C@H](C)C1OC(=O)[C@H]1C` (stereo not given in full) was tested, and the MIC (Candida albicans [16]) was 64 µg/mL (≈ 189 µM).

With `CCc1cccc(C)c1NS(=O)(=O)c1nc2nc(C)cc(C3CC3)n2n1` the MIC50 (Cryptococcus neoformans) was 4 µg/mL (≈ 10.8 µM), the MIC50 (Aspergillus fumigatus) was 4 µg/mL (≈ 10.8 µM) and the IC30 (Saccharomyces cerevisiae) was 4.2 µM. The MIC50 (Candida albicans [17]) was 1 µg/mL (≈ 2.69 µM).

Work on `COC(=O)C1=C(C)NC(C)=C(C(=O)OC)C1c1ccccc1[N+](=O)[O-]` yielded a fractional inhibitory concentration index (FICI) (Candida albicans [18]) of 0.017 to 0.035 and a fractional inhibitory concentration index (FICI) (Candida albicans [19]) of 0.017 to 0.035.

`COC(=O)c1ccc(C[C@@H](C(=O)OC)[C@@H](O)C(=O)OC)cc1` showed an MIC (Candida tropicalis) of 1000 µg/mL (≈ 3220 µM).

`Fc1ccc(C(c2ccc(F)cc2)N2CCN(C/C=C/c3ccccc3)CC2)cc1` showed a fractional inhibitory concentration index (FICI) (Candida albicans [18]) of 0.017 to 0.035 and a fractional inhibitory concentration index (FICI) (Candida albicans [19]) of 0.017 to 0.035.
